This note sets out measurements from publication PMC4821856, “Novel Anti-Campylobacter Compounds Identified Using High Throughput Screening of a Pre-selected Enriched Small Molecules Library” (Frontiers in Microbiology, 2016).

Series [1] has as its system C. jejuni 81–176. Put plainly: Minimum bactericidal concentration (MBC). It counts as cell-based, Campylobacter jejuni. To be noted: for MBC: Campylobacter jejuni, read-out: C. jejuni MBC (minimum bactericidal concentration). How it is done: The percentage of C. jejuni growth inhibition was calculated as mentioned previously (De La Fuente et al., [2006]) using the following formula: percentage of inhibition = 100 × (OD negative control–OD test compound)/(OD negative control–OD positive control). Compounds that inhibited Campylobacter growth ≥ 99.0% were selected as primary hits. The culture in wells with ≥ 99% growth inhibition were streaked onto fresh MH agar, as were the sterility, antibiotic and no compound control wells. Bacterial growth was measured on the plate after 48 h at 42°C. Based on the recovery of C. jejuni on MH agar plates, the compound was classified as either “bacteriostatic” or “bactericidal.”
(§1) Minimum inhibitory concentration value not necessarily indicates the killing concentration; therefore, we determined MBC for the top-12 compounds. MBC is defined as the concentration at which 99.9% (below detection limit) of Campylobacter organisms are killed. The MBC for each of these compounds were determined as described previously (Ling et al., [2015]). […] Overall MIC and MBC values were higher for C. coli compared to C. jejuni strain. The MIC and MBC for these 12 compounds for both C. jejuni and C. coli are presented in (Table 1).

Series [2] relates to C. coli ATCC 33559. Put plainly: Minimum inhibitory concentration (MIC). It is filed as cell-based. How it is done: The dose-dependent effect of 35 compounds against the highly pathogenic C. jejuni 81–176 strain was tested. Compounds were two-fold serially diluted (200 to 12.5 μM). One hundred micro liter of the OD600 0.1 adjusted C. jejuni culture was pipetted in to each well of a 96 well plate, treated with 1 μL of diluted compound and the plate was incubated at 42°C under microaerobic conditions for 24 h. Growth inhibition was assessed as above.
(§2) Initially we re-confirmed the efficacy of the 79 resynthesized compounds against C. jejuni 81–176 and C. coli ATCC 33559.
as §1

Series [3] has as its system C. coli ATCC 33559. Put plainly: Minimum bactericidal concentration (MBC). The conditions noted are these: for MBC: Campylobacter coli. It is filed as cell-based, Campylobacter coli. How it is done: as §2, §1
Series [4] has as its system C. jejuni 81–176. Put plainly: Single step resistance assay at lethal dose (5X MIC) on solid media. It counts as cell-based, Campylobacter jejuni. To be noted: solid MH agar with 5X MIC, 5 days, 42°C; resistant colonies observed yes/no. How it is done: (§3) Single step and sequential passage resistance assays were performed as described previously with a few modifications (Ling et al., [2015]; Xu et al., [2015]). The top 12 hit compounds were tested in this experiment. The MIC values for each of these 12 compound as determined in above assay was used for C. jejuni resistance studies using lethal (5X MIC) and sub-lethal (0.5X MIC) concentrations.
Campylobacter jejuni grown in MH medium overnight at 42°C was centrifuged at 4700 × g for 10 min at room temperature. The supernatant was discarded and the bacteria were resuspended in MH broth to an OD600 of 1.0 (~1 × 10^9 CFU). Compounds (5X MIC) were mixed with 5 ml of molten MH agar medium and transferred immediately onto small 35 mm petri-plates, agar in the plate was allowed to solidify in the dark. Ten micro liter of culture was transferred to the small molecule containing plates and spread using sterile beads, plates were incubated at 42°C for 5 days in the dark. Bacteria spread on MH agar with 50 μg/mL kanamycin or MH agar alone, were used as positive and negative controls, respectively. After 5 days of incubation, any colonies that developed were assessed for resistance to the test compounds by determining MIC and the MBC as noted above.
(§4) Our rationale for performing the resistance studies was to determine the ability of C. jejuni strain to develop resistance to these compounds when cultured on solid media with a lethal dose (5X MIC) or in liquid media with a sub-lethal dose (0.5X MIC). The presence of resistant colonies in any of these assays would reduce the attractiveness of the relevant small molecule while an absence of resistant colonies would indicate a likely inability of C. jejuni to develop resistance in general. […] Since C. jejuni is the major cause of human campylobacteriosis (95% of the cases); (Butzler, [2004]) and due to limitation of compounds availability, we only performed resistance studies on C. jejuni 81–176. However, for future commercial application of these antimicrobials, more in-depth characterization of potential resistance by other C. jejuni strains and C. coli is warranted.

The subject of series [5] is C. jejuni 81–176. Put plainly: Sequential passage resistance assay at sub-lethal dose (0.5X MIC), 15 passages. It is filed as cell-based, Campylobacter jejuni. The conditions noted are these: liquid MH with 0.5X MIC. How it is done: as §3
Overnight grown C. jejuni 81–176 culture was washed and suspended in MH broth to an OD600 of 0.05 (~10^7 CFU). Five milli liter of the OD adjusted fresh culture was mixed with 0.5X MIC of the relevant test compound (concentration allowing > 50% growth inhibition). Campylobacter jejuni cultured in 20 μg/mL chloramphenicol, or 50 μg/mL kanamycin, or 2% DMSO, or non-amended MH broth were used as controls. The bacteria were incubated at 42°C with shaking at 200 rpm for 24 h in the dark. Following incubation, cultures were centrifuged at 4700 × g for 10 min at room temperature. The supernatant was discarded; bacteria were resuspended in 5 ml of fresh MH containing 0.5X MIC of the same small molecule. This procedure was repeated 14 times. Following 15 passages, bacterial suspensions were assessed for resistance to the test compound by plating on MH media containing 1X MIC of small molecules.
as §4

Another series in a line: Hemolytic activity. The conditions noted are these: 10% sheep RBCs, 37°C. It is filed as cell-based. How it is done: The hemolytic activity of the top-12 compounds were determined as previously described (Strom et al., [2003]; Selin et al., [2015]). Briefly, 500 μL of sheep red blood cells (LAMPIRE Biological Laboratories, Pipersville, PA) were washed three times in PBS and resuspended in 5 mL of PBS to prepare a working concentration of 10% RBCs. Two hundred micro liter of the 10% RBCs suspension was incubated with 200 μM concentrations of compounds for 1 h at 37°C in a 96 well plate. After incubation, the plate was centrifuged (4000 rpm, 5 min) and placed on ice for few min. Supernatants from each well was transferred to a fresh 96 well plate and OD of 540 nm was measured. The PBS and 0.1% Triton X-100 were used as negative and positive controls, respectively. A range of 1–10% DMSO was also used as a control. A percent hemolysis was calculated using the following formula:
% Hemolysis=(OD of compound−OD of DMSO/ OD of Triton-X100)×100
Two independent experiments in triplicate were performed and results were expressed as the % average hemolysis.

The mark [6] stands for this setting: concentration at which 99.9% of organisms are killed.
Where [7] appears, read: Campylobacter coli, ATCC33559; read-out: C. coli MIC.
Where [8] appears, read: ATCC33559, concentration at which 99.9% of organisms are killed, read-out: C. coli MBC.
The mark [9] stands for this setting: sheep red blood cells (10% suspension).
[10] abbreviates: Campylobacter coli, ATCC33559, read-out: C. coli MIC.
Where [11] appears, read: ATCC33559, read-out: C. coli MBC.

Converted amounts (≈) assume the structure as drawn. Where two headings read alike, the source gives them in different places.

As for `O=S(=O)(Nc1cccc(C(F)(F)F)c1)c1ccc(Br)cc1` [Comp 1], the “MBC relative to MIC for C. jejuni” value in the series on C. jejuni 81–176 [1] is recorded as “same as that of their MIC”. In addition, the MBC in the series with C. jejuni 81–176 [1] (setting [6]) and with C. coli ATCC 33559 [3] (setting [8]) was 50 µM (≈ 19 µg/mL) in each case. Moreover, the MIC in the series with C. coli ATCC 33559 [2] (setting [7]) is 50 µM (≈ 19 µg/mL). Further, in the series on C. coli ATCC 33559 [3], the “MBC relative to MIC for C. coli” value is on record as “same as that of their MIC”. The “Resistance, single step 5X MIC” value with C. jejuni 81–176 [4] is “No”. Besides, in the series with C. jejuni 81–176 [5], the “Resistance, passage 0.5X MIC” value was “No”. The molecule also yielded a hemolysis at 1 h, 200 µM in the series “Hemolytic activity” (setting [9]) of 7.4%.
Take `COc1ccc(CN2CCN(c3ccc(F)cc3)CC2)cc1C` [Comp 2]: in the series with C. jejuni 81–176 [1], the “MBC relative to MIC for C. jejuni” value is recorded as “same as that of their MIC” and the MBC is 100 µM (≈ 31.4 µg/mL). For the same molecule, in the series on C. coli ATCC 33559 [2] (setting [10]), the MIC turned out to be 50 µM (≈ 15.7 µg/mL). In addition, in the series on C. coli ATCC 33559 [3], the “MBC relative to MIC for C. coli” value is “two-fold higher”. Further, the MBC in the series with C. coli ATCC 33559 [3] (setting [11]) came out at 100 µM (≈ 31.4 µg/mL). Moreover, in the series with C. jejuni 81–176 [4], the “Resistance, single step 5X MIC” value is on record as “No”. Further, in the series with C. jejuni 81–176 [5], the “Resistance, passage 0.5X MIC” value is listed as “No”. The molecule further gave a hemolysis at 1 h, 200 µM in the series “Hemolytic activity” of 0%.
As to `CN(C)c1ccc(CN2CCN(c3ccccc3Cl)CC2)cc1` [Comp 3], in the series with C. jejuni 81–176 [1], the “MBC relative to MIC for C. jejuni” value is “two-fold higher” and the MBC stood at 25 µM (≈ 8.25 µg/mL). Moreover, in the series with C. coli ATCC 33559 [2] (setting [10]), the minimal inhibitory concentration (MIC) stood at 50 µM (≈ 16.5 µg/mL). Moreover, the “MBC relative to MIC for C. coli” value in the series on C. coli ATCC 33559 [3] is “same as that of their MIC”. For the same molecule, the MBC in the series on C. coli ATCC 33559 [3] (setting [11]) turned out to be 50 µM (≈ 16.5 µg/mL). The “Resistance, single step 5X MIC” value in the series on C. jejuni 81–176 [4] is given as “No”. Also, the “Resistance, passage 0.5X MIC” value in the series with C. jejuni 81–176 [5] is “No”. The molecule further showed a hemolysis at 1 h, 200 µM in “Hemolytic activity” of 0%.
For `Clc1ccc(N2CCN(Cc3ccsc3)CC2)cc1` [Comp 4], in the series with C. jejuni 81–176 [1], the “MBC relative to MIC for C. jejuni” value is “same as that of their MIC”. Moreover, the MBC was determined as 50 µM (≈ 14.6 µg/mL) in the series with C. jejuni 81–176 [1] (setting [6]) and 100 µM (≈ 29.3 µg/mL) in the series with C. coli ATCC 33559 [3] (setting [8]). Also, the MIC in the series with C. coli ATCC 33559 [2] (setting [7]) was 50 µM (≈ 14.6 µg/mL). Further, the “MBC relative to MIC for C. coli” value against C. coli ATCC 33559 [3] was “two-fold higher”. Also, in the series with C. jejuni 81–176 [4], the “Resistance, single step 5X MIC” value is “No”. The “Resistance, passage 0.5X MIC” value in the series with C. jejuni 81–176 [5] is on record as “No”. The molecule further returned a hemolysis at 1 h, 200 µM in the series “Hemolytic activity” (setting [9]) of 0%.
Consider `Cc1ccc(N2CCN(C/C=C/c3ccccc3)CC2)cc1` [Comp 5], for which, in the series with C. jejuni 81–176 [1], the “MBC relative to MIC for C. jejuni” value is recorded as “same as that of their MIC”. Moreover, the MBC with C. jejuni 81–176 [1] (setting [6]) and in the series on C. coli ATCC 33559 [3] (setting [8]) was 50 µM (≈ 14.6 µg/mL) each time. Besides, the MIC with C. coli ATCC 33559 [2] (setting [7]) came to 50 µM (≈ 14.6 µg/mL). Moreover, the “MBC relative to MIC for C. coli” value in the series on C. coli ATCC 33559 [3] was “same as that of their MIC”. In the series on C. jejuni 81–176 [4], the “Resistance, single step 5X MIC” value is on record as “No”. Also, the “Resistance, passage 0.5X MIC” value in the series on C. jejuni 81–176 [5] is on record as “No”. The hemolysis at 1 h, 200 µM in the series “Hemolytic activity” (setting [9]) was found to be 0%.
With `O=c1c(Cl)c(Cl)cnn1-c1ccccc1Cl` [Comp 7], the “MBC relative to MIC for C. jejuni” value in the series with C. jejuni 81–176 [1] is on record as “same as that of their MIC”. In addition, the MBC with C. jejuni 81–176 [1] (setting [6]) was found to be 12.5 µM (≈ 3.44 µg/mL); in the series on C. coli ATCC 33559 [3] (setting [8]), 50 µM (≈ 13.8 µg/mL). Further, in the series with C. coli ATCC 33559 [2] (setting [7]), the MIC worked out at 50 µM (≈ 13.8 µg/mL). In addition, in the series on C. coli ATCC 33559 [3], the “MBC relative to MIC for C. coli” value is “same as that of their MIC”. Moreover, the “Resistance, single step 5X MIC” value in the series on C. jejuni 81–176 [4] is given as “No”. The “Resistance, passage 0.5X MIC” value in the series with C. jejuni 81–176 [5] is recorded as “No”. In “Hemolytic activity” (setting [9]), this molecule displayed a hemolysis at 1 h, 200 µM of 0%.

As a reminder, the MIC is the least concentration at which growth counts as inhibited.
